Measurements taken from patent publication US10501514B2, “Cyclic galanin-analogs and uses thereof” (LanthioPep B.V., priority 2015, dated 2019).
Where two headings read alike, the source gives them in different places.

Assays:
[1] = system: Galanin receptor (GalR1, GalR2); experiment: Galanin receptor activation assays, overall statements in words; format: cell-based; conditions: overall statement on galanin receptor activation
Experimental: (§1) The biological activity of the (lanthi)galanins was determined in CHO-K1 cell lines that express either the GalR1, or GalR2 receptor. Activity measurements were performed using commercial kits from DiscoverX for determining arrestin recruitment (GalR1, GalR2) and inhibition of cAMP synthesis (GalR1). In addition, HEK293 cell lines that express the GalR2 receptor have been used for methods from Molecular Probes to measure calcium efflux (GalR2).
Peptide was dissolved in 0.3% ammonia. Peptides were incubated o/n at 37° C. for the introduction of the lanthionine via base assisted sulfur extrusion of the disulfide bridged peptide. Different isomers could be isolated by HPLC applying the same method as was used as for the biologically produced peptides. Different isomers were purified and lyophilized. Dry peptides were dissolved in 100 mM phosphate buffer pH=7.6 and peptides were incubated o/n at 50° C. After HPLC purification peptides with a pE formation were selected and used in the different Galanin receptor activation assays.

GalR1 [2] = biological target: T1, GalR1 (Homo sapiens, UniProt P47211)
T1 sequence (P47211 1-349): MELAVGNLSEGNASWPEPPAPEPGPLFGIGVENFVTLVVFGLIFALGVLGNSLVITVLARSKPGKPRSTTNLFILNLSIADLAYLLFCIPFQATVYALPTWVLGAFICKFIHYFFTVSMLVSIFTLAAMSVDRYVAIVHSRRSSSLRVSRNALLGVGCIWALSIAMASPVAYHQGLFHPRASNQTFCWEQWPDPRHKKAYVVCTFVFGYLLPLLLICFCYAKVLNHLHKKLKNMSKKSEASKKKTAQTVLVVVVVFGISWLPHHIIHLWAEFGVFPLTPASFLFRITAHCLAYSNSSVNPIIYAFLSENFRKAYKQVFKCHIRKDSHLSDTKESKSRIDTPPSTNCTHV
Experimental: as §1
(§2) ND indicates ‘not determined’.
(§3) Peptide was dissolved in 0.3% ammonia. Peptides were incubated o/n at 37° C. for the introduction of the lanthionine via base assisted sulfur extrusion of the disulfide bridged peptide. […] Different isomers were purified and lyophilized. Dry peptides were dissolved in 100 mM phosphate buffer pH=7.6 and peptides were incubated o/n at 50° C. After HPLC purification peptides with a pE formation were selected and used in the different Galanin receptor activation assays.

GalR1 [3] = biological target: T1, GalR1; experiment: inhibition of cAMP synthesis in CHO-K1 cells expressing GalR1 (DiscoverX kit); format: cell-based; design: host or cells: CHO-K1; conditions: for Ratio EC50s relative to Gal-(1-15), GalR1 cAMP inhibition: Table 2, variants chemically obtained by base-assisted sulfur extrusion, 'no' wraps to 'activity' = no activity
Experimental: as §1, §2, §3

GalR2 = biological target: T2, GalR2 (Homo sapiens, UniProt O43603); format: cell-based
T2 construct: expressed in transfected cells; host or cells: HEK293
T2 sequence (O43603 1-387): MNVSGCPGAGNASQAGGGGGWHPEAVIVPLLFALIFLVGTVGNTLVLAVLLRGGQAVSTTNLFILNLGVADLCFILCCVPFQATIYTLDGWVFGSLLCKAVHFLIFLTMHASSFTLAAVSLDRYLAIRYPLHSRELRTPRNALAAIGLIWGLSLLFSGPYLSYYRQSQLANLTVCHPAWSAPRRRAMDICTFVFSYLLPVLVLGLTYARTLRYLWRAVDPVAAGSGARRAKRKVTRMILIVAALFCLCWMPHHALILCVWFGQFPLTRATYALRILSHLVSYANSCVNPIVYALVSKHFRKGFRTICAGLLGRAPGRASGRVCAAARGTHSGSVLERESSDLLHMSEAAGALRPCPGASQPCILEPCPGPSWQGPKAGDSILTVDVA
Experimental: as §2
Peptide was dissolved in 0.3% ammonia. […] Different isomers were purified and lyophilized.

| SMILES | activity, in words [1] | Ratio EC50s relative to Gal-(1-15), GalR1 β-Arrestin (GalR1 [2]) | Ratio EC50s relative to Gal-(1-15), GalR1 cAMP inhibition (GalR1 [3]) | Ratio EC50s relative to Gal-(1-15), GalR2 Ca efflux (GalR2) | Ratio EC50s relative to Gal-(1-15), GalR2 β-Arrestin (GalR2) | Ratio EC50s relative to Gal-(1-15), GalR1 β-Arrestin (GalR1 [2]; Table 2, variants chemically obtained by base-assisted sulfur extrusion, 'no' wraps to 'activity' = no activity) | β-arrestin recruitment via GalR1, in words (GalR1 [2]; FIG. 1) | cAMP production via GalR1, in words (GalR1 [3]; FIG. 3) |
| --- | --- | --- | --- | --- | --- | --- | --- | --- |
| CC(C)C[C@@H]1NC(=O)[C@H](CC(C)C)NC(=O)[C@H](Cc2ccc(O)cc2)NC(=O)C(NC(=O)[C@H](C)NC(=O)[C@H](C)NC(=O)[C@H](CC(N)=O)NC(=O)[C@H](CC(C)C)NC(=O)[C@@H](NC(=O)[C@H](Cc2c[nH]c3ccccc23)NC(=O)[C@@H]2CCC(=O)N2)[C@@H](C)O)CSCC(C(=O)O)NC1=O (single isomer, unassigned) [4179 B, pEWTLNAAlanYLLlan] | high activity | 720 | no | 2.6 | 3.8 | – | – | – |
| CC(C)C[C@@H]1NC(=O)[C@H](CC(C)C)NC(=O)[C@H](Cc2ccc(O)cc2)NC(=O)C(NC(=O)[C@H](C)NC(=O)[C@H](C)NC(=O)[C@H](CC(N)=O)NC(=O)[C@H](CC(C)C)NC(=O)[C@@H](NC(=O)[C@H](Cc2c[nH]c3ccccc23)NC(=O)[C@@H]2CCC(=O)N2)[C@@H](C)O)CSCC(C(=O)O)NC1=O (single isomer, unassigned) [4179 A, pEWTLNAAlanYLLlan] | – | – | no | 94 | – | no | – | – |
| CC(C)C[C@H](NC(=O)[C@H](CC(C)C)NC(=O)[C@H](Cc1ccc(O)cc1)NC(=O)CNC(=O)[C@H](C)NC(=O)[C@H](C)NC(=O)[C@H](CC(N)=O)NC(=O)[C@H](CC(C)C)NC(=O)[C@H](CC(N)=O)NC(=O)[C@H](Cc1c[nH]c2ccccc12)NC(=O)[C@@H]1CCC(=O)N1)C(=O)NCC(=O)N1CCC[C@H]1C(=O)NC1CSCC(C(=O)O)NC(=O)[C@H](C(C)C)NC(=O)[C@H](C)NC1=O (single isomer, unassigned) [4178 B] | highly active | 39 | no | 1.4 | 2.3 | – | – | – |
| CC(C)C[C@H](NC(=O)[C@H](CC(C)C)NC(=O)[C@H](Cc1ccc(O)cc1)NC(=O)CNC(=O)[C@H](C)NC(=O)[C@H](C)NC(=O)[C@H](CC(N)=O)NC(=O)[C@H](CC(C)C)NC(=O)[C@H](CC(N)=O)NC(=O)[C@H](Cc1c[nH]c2ccccc12)NC(=O)[C@@H]1CCC(=O)N1)C(=O)NCC(=O)N1CCC[C@H]1C(=O)NC1CSCC(C(=O)O)NC(=O)[C@H](C(C)C)NC(=O)[C@H](C)NC1=O (single isomer, unassigned) [4178 A] | – | >1000 | no | 11 | 137 | – | – | – |
| CC(C)C[C@H](NC(=O)[C@H](CC(C)C)NC(=O)[C@H](Cc1ccc(O)cc1)NC(=O)CNC(=O)[C@H](C)NC(=O)[C@H](C)NC(=O)[C@H](CC(N)=O)NC(=O)[C@H](CC(C)C)NC(=O)[C@H](CC(N)=O)NC(=O)[C@H](Cc1c[nH]c2ccccc12)NC(=O)CN)C(=O)NCC(=O)N[C@@H](C)C(=O)N[C@H]1C(=O)N[C@@H](C)C(=O)N[C@@H](C(C)C)C(=O)N[C@H](C(=O)N[C@@H](CC(N)=O)C(=O)N[C@@H](Cc2c[nH]cn2)C(=O)N[C@@H](CCCNC(=N)N)C(=O)O)CS[C@H]1C [GalM51] | – | – | – | – | – | – | induced β-arrestin recruitment via GalR1 | inhibit cAMP production via GalR1 |
